# Reference: US9023789B2, “Amylin analogs and pharmaceutical compositions thereof” (Novo Nordisk A/S, priority 2012, dated 2015)
# Like-named read-outs stand apart in the source and are kept apart here. Numbered stars: 1 amine (or outer) side, 2 acyl side, 3 side chain; on linkers, the order of the positions; unused ones are H or OH. Bridge positions count the residues as written; N and C are the ends. Side chains are listed from the residue outwards. Peptide text beside a SMILES is read from it. * marks the point of attachment. C20 diacid = O=C(O)CCCCCCCCCCCCCCCCCCC(=O)*; γGlu = O=C(O)[C@H](CCC(=O)[*:2])N[*:1]; AEEA = NCCOCCOCC(=O)O
# Experiments:
# [1] = molecular target: T1, human amylin 3(a) receptor (human calcitonin receptor + RAMP-3) in BHK570 cells (Homo sapiens, UniProt O60896+P30988); experiment: ASSAY (II)a functional assay, human amylin receptor (CRE luciferase); format: cell-based
# T1 construct: expressed in transfected cells
# How it was run: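 Ligand exposure 3 h at 37 °C, 5% CO2 in DMEM with 10% FBS, 10 mM Hepes pH 7.4. cAMP-driven luciferase read by luminescence after 30 min LucLite at room temperature.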
# [2] = ASSAY (IV) determination of solubility; format: physicochemical
# How it was run: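 Polypeptide in water at […] mixed 1:1 with 100 mM buffers of pH 3.0-8.0 (glycylglycine pH 3-5, bistrispropane pH 6-8). Held 18 h at room temperature, then centrifuged; concentration remaining in solution measured by UPLC.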
# [3] = molecular target: T2, human amylin receptor (membranes from Amylin 3(a)/CRE-luc cells) (Homo sapiens, UniProt O60896+P30988); experiment: ASSAY (V) binding to the human amylin receptor (SPA, 125I-rat amylin);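 note: competition binding of cell membranes (35 ng/µL) mixed with SPA beads in 384-well plates at 40 µL total volume, read by scintillation counting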
# T2 construct: expressed in transfected cells
# T2 sequence (P30988 25-474): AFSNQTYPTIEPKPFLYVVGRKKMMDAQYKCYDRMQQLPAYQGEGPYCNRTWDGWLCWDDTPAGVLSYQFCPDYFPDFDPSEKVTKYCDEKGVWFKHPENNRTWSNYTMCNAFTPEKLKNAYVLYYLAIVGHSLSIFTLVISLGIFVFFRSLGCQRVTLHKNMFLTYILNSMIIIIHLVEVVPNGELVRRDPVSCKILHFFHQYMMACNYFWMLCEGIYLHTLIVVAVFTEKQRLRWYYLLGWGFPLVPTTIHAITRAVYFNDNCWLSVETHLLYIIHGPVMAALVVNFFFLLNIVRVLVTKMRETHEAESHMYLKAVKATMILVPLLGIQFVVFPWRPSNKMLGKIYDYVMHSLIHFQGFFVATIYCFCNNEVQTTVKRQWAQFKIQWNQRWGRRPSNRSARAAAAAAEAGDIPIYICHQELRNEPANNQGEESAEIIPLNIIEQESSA
# T2 sequence (O60896 24-148 partner): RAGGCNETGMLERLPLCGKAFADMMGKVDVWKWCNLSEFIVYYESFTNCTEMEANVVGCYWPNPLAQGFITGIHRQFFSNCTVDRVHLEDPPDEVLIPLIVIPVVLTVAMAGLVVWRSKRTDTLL
# [4] = molecular target: T3, rat amylin receptor (rat calcitonin receptor + rat RAMP 3) (Rattus norvegicus, UniProt P32214+Q9JJ73); experiment: ASSAY (VI) binding to the rat amylin receptor; conditions: for IC50: binding to rat amylin receptor, read-out: rAmylin-R bind IC50
# T3 construct: expressed in transfected cells; host or cells: BHK tk'ts 13 (transient, FuGENE 6), membranes
# T3 sequence (P32214 25-479 isoform P32214-2 limits assumed): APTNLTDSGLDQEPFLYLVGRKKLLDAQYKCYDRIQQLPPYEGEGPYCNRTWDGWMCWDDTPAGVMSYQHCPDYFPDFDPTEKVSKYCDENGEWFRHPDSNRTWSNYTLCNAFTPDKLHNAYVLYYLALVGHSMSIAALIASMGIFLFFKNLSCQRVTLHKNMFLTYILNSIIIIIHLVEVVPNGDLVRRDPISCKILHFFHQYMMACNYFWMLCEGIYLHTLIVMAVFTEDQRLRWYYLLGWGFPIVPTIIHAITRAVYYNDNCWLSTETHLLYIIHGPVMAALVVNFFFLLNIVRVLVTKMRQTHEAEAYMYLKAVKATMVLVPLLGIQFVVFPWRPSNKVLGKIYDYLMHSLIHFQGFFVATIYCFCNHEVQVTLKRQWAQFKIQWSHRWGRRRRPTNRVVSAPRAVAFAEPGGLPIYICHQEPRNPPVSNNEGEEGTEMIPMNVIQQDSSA
# T3 sequence (Q9JJ73 23-147 partner): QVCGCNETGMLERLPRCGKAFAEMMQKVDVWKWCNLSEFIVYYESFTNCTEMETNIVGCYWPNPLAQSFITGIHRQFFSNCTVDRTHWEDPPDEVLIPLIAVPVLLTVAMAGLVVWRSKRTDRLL
# How it was run: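 This assay measured binding to the rat amylin receptor. BHK tk′ts 13 cells were transiently transfected with the rat calcitonin receptor using FuGENE® 6 (Roche), following the manufacturer's recommendations. About 48 hours after transfection, the cells were harvested and membranes were prepared from them for the binding determination.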
# rat calcitonin receptor = molecular target: T4, rat calcitonin receptor (Rattus norvegicus, UniProt P32214); experiment: ASSAY (VIII) binding to the rat calcitonin receptor; conditions: Table 7, read-out: rCTR bind IC50
# T4 construct: expressed in transfected cells; host or cells: BHK tk'ts 13 (transient, FuGENE 6), membranes
# T4 sequence (P32214 25-479 isoform P32214-2 limits assumed): T3 sequence (P32214 25-479 isoform P32214-2 limits assumed)
# How it was run: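 Membranes were prepared from BHK tk′ts 13 cells transiently transfected with rat calcitonin receptor. Cells were grown in DMEM with 10% FBS and harvested approximately 48 hours after transfection.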
# [5] = hCTR funct. EC50 divided by hAmylin-R funct. EC50
# [6] = hCTR funct. EC50 over hAmylin-R funct. EC50
# [7] = human functional selectivity: hCTR funct. EC50 / hAmylin-R funct. EC50
# [8] = bistrispropane buffer, pH 6.5, read-out: Solubility pH 6.5 Concentration
# [9] = bistrispropane buffer, pH 7.5, read-out: Solubility pH 7.5 Concentration
# [10] = bistrispropane buffer, pH 6.0, read-out: Solubility pH 6.0 Concentration
# [11] = bistrispropane buffer, pH 7.0, read-out: Solubility pH 7.0 Concentration
# [12] = bistrispropane buffer, pH 8.0, read-out: Solubility pH 8.0 Concentration
# [13] = glycylglycine buffer, pH 3.0, read-out: Solubility pH 3.0 Concentration
# [14] = glycylglycine buffer, pH 4.0, read-out: Solubility pH 4.0 Concentration
# [15] = glycylglycine buffer, pH 5.0, read-out: Solubility pH 5.0 Concentration
# [16] = Table 5, selectivity, hCTR bind IC50 / hAmylin-R bind IC50
# [17] = Table 5a, selectivity, hCTR bind IC50 / hAmylin-R bind IC50
# [18] = Table 5b, selectivity, hCTR bind IC50 / hAmylin-R bind IC50
# [19] = Table 5c, selectivity, hCTR bind IC50 / hAmylin-R bind IC50
# [20] = Table 7, human binding selectivity, included for comparison
# [21] = Table 7a (preferred compounds), human binding selectivity, included for comparison
# [22] = ratio of human calcitonin receptor binding IC50 to human amylin receptor binding IC50
# [23] = Table 7, rat binding selectivity, rCTR IC50 / rAmylin-R IC50
# [24] = Table 7a (preferred compounds), rat binding selectivity, rCTR IC50 / rAmylin-R IC50
# [25] = ratio of rCTR bind IC50 to rAmylin-R bind IC50
SMILES,"Ratio hCT/hAmylin funct. [1, 5]","Ratio hCT/hAmylin funct. [1, 7]","solubility at 18 h [2, 8]","solubility at 18 h [2, 9]","solubility at 18 h [2, 10]","solubility at 18 h [2, 11]","solubility at 18 h [2, 12]","solubility at 18 h [2, 13]","solubility at 18 h [2, 14]","solubility at 18 h [2, 15]","Ratio hCT/hAmylin binding [3, 16]","Ratio hCT/hAmylin binding [3, 17]","Ratio hCT/hAmylin binding [3, 18]","Ratio hCT/hAmylin binding [3, 20]","Ratio hCT/hAmylin binding [3, 21]","Ratio hCT/hAmylin binding [3, 22]",IC50 ([4]; Table 7),"Ratio rCT/rAmylin binding [4, 23]","Ratio rCT/rAmylin binding [4, 24]","Ratio rCT/rAmylin binding [4, 25]",further results
CC[C@H](C)[C@H](NC(=O)[C@H](C)NC(=O)CNC(=O)[C@H](Cc1ccccc1)NC(=O)[C@H](CC(N)=O)NC(=O)[C@@H]1CCCN1C(=O)[C@H](CO)NC(=O)[C@H](CO)NC(=O)[C@H](Cc1c[nH]cn1)NC(=O)[C@H](CCCNC(=N)N)NC(=O)[C@H](CC(C)C)NC(=O)[C@H](Cc1ccccc1)NC(=O)[C@H](CCCNC(=N)N)NC(=O)[C@H](C)NC(=O)[C@H](CC(C)C)NC(=O)[C@H](CCCNC(=N)N)NC(=O)[C@H](CCC(N)=O)NC(=O)[C@@H](NC(=O)[C@H](C)NC(=O)[C@@H]1CSSC[C@H](NC(=O)[C@@H](N)CCCCNC(=O)CC[C@H](NC(=O)CCCCCCCCCCCCCCCCCCC(=O)O)C(=O)O)C(=O)N[C@@H](CC(N)=O)C(=O)N[C@@H]([C@@H](C)O)C(=O)N[C@@H](C)C(=O)N[C@@H]([C@@H](C)O)C(=O)N1)[C@@H](C)O)C(=O)N1CCC[C@H]1C(=O)N[C@@H](CO)C(=O)N[C@@H](CO)C(=O)N[C@H](C(=O)N1CCC[C@H]1C(=O)N[C@H](C(=O)NCC(=O)N[C@@H](CO)C(=O)N[C@@H](CC(N)=O)C(=O)N[C@H](C(=O)N[C@@H](Cc1ccc(O)cc1)C(N)=O)[C@@H](C)O)C(C)C)[C@@H](C)O [Example 63] (H-K([γGlu-C20 diacid])CNTATCATQRLARFLRHSSPNFGAIPSSTPVGSNTY-NH2; disulfide 2-7 (inferred); N-terminus assumed),138.7,138.7,≥ 200 µM,≥ 200 µM,≥ 200 µM,≥ 200 µM,≥ 200 µM,≥ 200 µM,≥ 200 µM,≥ 200 µM,157.1,157.1,157.1,157.1,157.1,157.1,3.48 nM,35.6,35.6,35.6,"Ratio hCT/hAmylin funct. [1, 6]: 138.7; Ratio hCT/hAmylin binding [3, 19]: 157.1; IC50 (rat calcitonin receptor): 124 nM"
CC[C@H](C)[C@H](NC(=O)[C@H](C)NC(=O)CNC(=O)[C@H](Cc1ccccc1)NC(=O)[C@H](CC(N)=O)NC(=O)[C@@H]1CCCN1C(=O)[C@H](CO)NC(=O)[C@H](CO)NC(=O)[C@H](Cc1c[nH]cn1)NC(=O)[C@H](CCCNC(=N)N)NC(=O)[C@H](CC(C)C)NC(=O)[C@H](Cc1ccccc1)NC(=O)[C@H](CC(N)=O)NC(=O)[C@H](C)NC(=O)[C@H](CC(C)C)NC(=O)[C@H](CCCNC(=N)N)NC(=O)[C@H](CCC(N)=O)NC(=O)[C@@H](NC(=O)[C@H](C)NC(=O)[C@@H]1CSSC[C@H](NC(=O)[C@H](CCCNC(=N)N)NC(=O)[C@@H](N)CCCCNC(=O)CC[C@H](NC(=O)CCCCCCCCCCCCCCCCCCC(=O)O)C(=O)O)C(=O)N[C@@H](CC(N)=O)C(=O)N[C@@H]([C@@H](C)O)C(=O)N[C@@H](C)C(=O)N[C@@H]([C@@H](C)O)C(=O)N1)[C@@H](C)O)C(=O)N1CCC[C@H]1C(=O)N[C@@H](CO)C(=O)N[C@@H](CO)C(=O)N[C@H](C(=O)N[C@@H](CC(N)=O)C(=O)N[C@H](C(=O)NCC(=O)N[C@@H](CO)C(=O)N[C@@H](Cc1c[nH]cn1)C(=O)N[C@H](C(=O)N[C@@H](Cc1ccc(O)cc1)C(N)=O)[C@@H](C)O)C(C)C)[C@@H](C)O [Example 44] (H-K([γGlu-C20 diacid])RCNTATCATQRLANFLRHSSPNFGAIPSSTNVGSHTY-NH2; disulfide 3-8),24.0,24.0,≥ 200 µM,87 µM,≥ 200 µM,≥ 200 µM,39 µM,≥ 200 µM,≥ 200 µM,≥ 200 µM,17.7,17.7,17.7,17.7,17.7,17.7,0.369 nM,53.3,53.3,53.3,"Ratio hCT/hAmylin funct. [1, 6]: 24.0; EC50 ([1]; human amylin receptor functional potency, assay (II), read-out: hAmylin-R funct. EC50): 0.198 nM; IC50 ([3]; Table 4, read-out: hAmylin-R bind IC50): 0.275 nM; IC50 (rat calcitonin receptor): 19.7 nM"
CC[C@H](C)[C@H](NC(=O)[C@H](C)NC(=O)CNC(=O)[C@H](Cc1ccccc1)NC(=O)[C@H](CC(N)=O)NC(=O)[C@@H]1CCCN1C(=O)[C@H](CO)NC(=O)[C@H](CO)NC(=O)[C@H](Cc1c[nH]cn1)NC(=O)[C@H](CCCNC(=N)N)NC(=O)[C@H](CC(C)C)NC(=O)[C@H](Cc1ccccc1)NC(=O)[C@H](CC(N)=O)NC(=O)[C@H](C)NC(=O)[C@H](CC(C)C)NC(=O)[C@H](CCCNC(=N)N)NC(=O)[C@H](CCC(N)=O)NC(=O)[C@@H](NC(=O)[C@H](C)NC(=O)[C@@H]1CSSC[C@H](NC(=O)[C@@H](N)CCCCNC(=O)COCCOCCNC(=O)CC[C@H](NC(=O)CCCCCCCCCCCCCCCCCCC(=O)O)C(=O)O)C(=O)N[C@@H](CC(N)=O)C(=O)N[C@@H]([C@@H](C)O)C(=O)N[C@@H](C)C(=O)N[C@@H]([C@@H](C)O)C(=O)N1)[C@@H](C)O)C(=O)N1CCC[C@H]1C(=O)N1CCC[C@H]1C(=O)N[C@@H](CO)C(=O)N[C@H](C(=O)N1CCC[C@H]1C(=O)N[C@H](C(=O)NCC(=O)N[C@@H](CO)C(=O)N[C@@H](CC(N)=O)C(=O)N[C@H](C(=O)N[C@@H](Cc1ccc(O)cc1)C(N)=O)[C@@H](C)O)C(C)C)[C@@H](C)O [Example 53] (H-K([AEEA-γGlu-C20 diacid])CNTATCATQRLANFLRHSSPNFGAIPPSTPVGSNTY-NH2; disulfide 2-7; N-terminus assumed),9.8,9.8,≥ 200 µM,≥ 200 µM,≥ 200 µM,≥ 200 µM,≥ 200 µM,≥ 200 µM,≥ 200 µM,≥ 200 µM,103.5,103.5,103.5,103.5,103.5,103.5,0.084 nM,130.1,130.1,130.1,"Ratio hCT/hAmylin binding [3, 19]: 103.5; IC50 (rat calcitonin receptor): 10.9 nM"
